Measurements from publication PMC12090178, “Exploring the Potential of Homologous Recombination Protein PALB2 in Synthetic Lethal Combinations” (ACS Chemical Biology, 2025).
“Also recorded” adds a separate entry of the source. Where no end group is shown, it is not given here.

Assays:
SmBiT-PALB2 = assay: NanoBit protein-protein interaction assay in HEK293 cells; type: cell-based; details: BRCA2 peptide fused to LgBiT, HEK293, 24 h after transfection, signal normalized to empty vector
Procedure: The NanoBit CMV MCS BiBiT-Ready Vector (Promega) was modified to express PALB2 with a C-Terminal SmBit and the BRCA2 N-terminal peptide with a N-terminal LgBit. 5000 HEK293 cells were seeded in each well of a 96-well plate with a white bottom and grown for 24 h with cell medium (DMEM supplemented with 10% FCS at 37 °C with 5% CO2). The plasmid (100 ng) was transfected with FuGene HD (Promega, E5911) and incubated for 24 h. Then, Nano-Glo Live cell assay substrate (Promega) was added and the luminescence signal was recorded for 1000 ms. Signal was normalized to empty vector.
3 PALB2-BRCA2 interaction assays
0.5 million HEK293 cells were seeded per well in a 6-well plate. After 24 h, 2 μg of plasmid pCMV-FLAG-PALB2-IKZF3d or pCMV-FLAG-GFP-IKZF3d (control group) was transiently transfected with TurboFect (Thermo Scientific, e.g. R0531 or R0533) int o each well . After 36 h , the medium of at least 3 wells was removed. The cells were washed once with cold PBS on ice. […] The samples were analyzed by Western Blot. […]
NanoBiT CMV MCS BiBiT-Ready Vector (Promega) was used to construct a plasmid that can express LgBit fusion and SmBit fusion at the same time in cells. […] 24 hours after transfection, the luminescence signal of each well was obtained by adding Nano-Glo Live Cell Assay System (Promega) and the signal was read on a T e can S p ark 10M ( Tecan) for 1000 ms without temperature control.

[1] = target: PALB2 C-terminal WD40 domain; details: previous structural work; read-out: binding affinity to PALB2; cited from earlier work
Procedure: Previous structural work on the PALB2 C-terminal WD40 domain identified a small fragment of BRCA2 (residues 21–39) with an approximately 600 nM binding affinity (600 nM) to PALB2 (see Figure 2A for structure).[16] […] Binding of the BRCA2(21–39) peptide using fluorescence polarization (FP) with fluorescein (FAM) indeed gave a value in close alignment with the previous report (Figure 2B).[16] Building from this observation we further characterized the binding of amino acids 1 ...

PALB2-IKZF3d = assay: IMiD-induced degradation of PALB2-IKZF3d (Western blot); type: cell-based; details: for degradation of PALB2 in IKZF3d knock-in cells: homozygous IKZF3d knock-in HEK293 cells, 24 h treatment
Procedure: 5.1 Degradation of PALB2 and UPP rescue assays
To show PALB2 deegradation, cells were treated with pomalidomide at the indicated concentrations for 24 h. The cells were subsequently lysed and prepared for gel electrophoresis and western blotting.
To show UPP rescue, MG132 and MLN4924 were used to inhibit the ubiquitination-proteasome degradation pathway. The cells were first treated with 1 μM MG132 or 1 μM MLN4924. After 6 h, pomalidomide was added to a final concentration of 10 μM. After 18 h, the cells were collected and lysed.
To show PALB2 recovery, the cells were first treated with 10 μM pomalidomide or 10 μM iberdomide for 24 h. After that, the culture medium was removed, the cells were washed three times with fresh culture medium and then cultured with culture medium without IMiDs.
The cells were then collected an d l yse d . […]
Figure S7. A). Degradation of endogenous PALB2.
B). PALB2 de gra dation rescue expe ri ment. The cells in the degradation rescue group w ere first t reated with 1 μ M MG132 and 1 μ M M LN49 24 for 6 hou rs and then t reated with 10 μ M pomalidomide for 1 8 hours. Cell samples were collected for WB analysis. The asterisk represents a nonspecific band of PALB 2 with t his antibody. […]

[2] = tested on: homologous recombination repair (DR-GFP reporter); assay: DR-GFP reporter assay of homologous recombination; type: cell-based
Procedure: DR-GFP plasmid[53] (a gift from Maria Jasin, Addgene plasmid #26475; RRID/Addgene_26475) was transfected into HEK293 cells with TurboFect (Thermo Scientific) at 70% confluency and selected with hygromycin (0.1 g/L, Invivogen) after 48 h. Transfected cells were moved to a 150 mm cell culture dish and cultured in DMEM medium with hygromycin (0.1 g/L). After obtaining cells carrying the DR-GFP reporter, the cells were treated with Pom for 24 h. Cells were then transfected with a modified pCBASceI[53] (a gift from Maria Jasin, Addgene plasmid #26477; RRID/Addgene_26477, I-SceI was expressed with P2A-mCherry to select for positively transfected cells) to introduce DSB at the I-SceI site in inserted DR-GFP plasmid. Four days after transfection, cells were resuspended in PBS and analyzed by flow cytometry.
6 Homologous recombination assay […]
(§1) After obtaining cells carrying the DR-GFP reporter, cells were maintained in medium with 10 µM pomalidomide for 24 hours. […] Four days after transfection, cells were resuspended in PBS and analyzed by flow cytometry using a BD LSR Fortessa. […]
(§2) primary antibody incubation, coverslips were washed 3 times with PBS. […] Fluorescence images were taken by confocal microscopy (LEICA POINT SCANNING CONFOCAL SP8). RAD51 f o ci numbers in each cell we re counted with Fiji ImageJ.

Rad51 foci = Rad51 foci assay; type: cell-based; details: Pom 10 μM 24 h, then CPT 10 nM 12 h
Procedure: 50,000 cells (WT HEK293 or HEK293-PALB2^IKZF 3d/IKZF 3d) were seeded on coverslips and cultured with Pom (10 μM). After 24 h, CPT was added (10 nM). […] After removing the BSA-containing PBS, coverslips were incubated with primary antibody (Alexa Fluor 488 Anti-Rad51 antibody [EPR4030(3)] (Abcam, ab309674, RRID/AB_3675862), 1:500 in PBS) for 2 h and washed with PBS (3 times). Then, coverslips were mounted with antifade mountant with DAPI (Invitrogen) and fluorescence images were recorded by confocal microscopy (Leica Point Scanning Confocal SP8). Rad51 foci numbers in each cell were counted with Fiji ImageJ.
6 Homologous recombination assay
DR-GFP1 substrate (a gift from Maria Jasin, Addgene plasmid #26475; RRID:Addgene_26475) is flanked by human AAVS1 homology arms. Endogenous AAVS1 promoter drives T2A-hygromycin expression after integration. PX458-AAVS1 (#113194, Addgene) encodes sgRNA for human AAVS1 and expresses Cas9 nuclease. […]
as §1, §2

[3] = tested on: HEK293 PALB2 IKZF3d/IKZF3d knock-in cells; assay: Cell viability assay (WST-1); type: cell-based; details: 4 days (96 h), Pom 0, 5, 10 and 40 μM, WST-1
[4] = target: BRCA2 21-39 (Homo sapiens) (UniProt P51587); details: cited from earlier work
[5] = target: T1, PALB2 C-terminal WD40 domain (UniProt Q86YC2 835-1186); assay: fluorescence polarisation; not told for these peptides whether direct (labelled peptide) or displacement (dark peptide at 10 μM added to the PALB2C dilution series with 10 nM fluorescent peptide; competitive binding model); 25 °C; details: both partners purified
T1 construct: PALB2 (partner and localizer of BRCA2), C-terminal WD40 beta-propeller domain; as I recall that construct spans about residues 835-1186; methods are in the Supporting Information; also called PALB2 C-terminal domain
T1 sequence: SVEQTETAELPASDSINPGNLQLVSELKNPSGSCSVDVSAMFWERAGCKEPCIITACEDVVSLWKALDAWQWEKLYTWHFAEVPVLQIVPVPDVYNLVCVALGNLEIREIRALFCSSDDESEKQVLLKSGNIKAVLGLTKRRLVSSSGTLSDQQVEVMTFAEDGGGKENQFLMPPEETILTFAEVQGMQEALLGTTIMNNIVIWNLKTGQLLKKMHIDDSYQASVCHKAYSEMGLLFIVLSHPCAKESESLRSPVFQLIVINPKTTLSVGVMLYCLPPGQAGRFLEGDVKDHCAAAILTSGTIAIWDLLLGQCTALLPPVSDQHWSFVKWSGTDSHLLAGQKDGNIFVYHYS

## W31R mutation of the BRCA(21–39) peptide: point mutated BRCA2 peptide (21-39, W31R) fused with LgBit; negative control (KADLGPISLNRFEELSSEA; also: fused with LgBiT)
SmBiT-PALB2
  NanoBit interaction signal with PALB2: complete loss of the interaction signal

## BRCA2 (residues 21–39): small fragment of BRCA2 (residues 21-39) from previous structural work (fluorescein-GGKADLGPISLNWFEELSSEA)
[1]
  Kd: ~600 nM

## Nc1cccc2c1C(=O)N(C1CCC(=O)NC1=O)C2=O (stereo not shown) [Pom, pomalidomide]
PALB2-IKZF3d; 10 μM IMiD for 24 h, then medium removed and cells washed, knock-in cells
  recovery of PALB2 levels after wash out: PALB2 levels recover after 24 h
PALB2-IKZF3d; HEK293, transient transfection, 10 μM pomalidomide, 24 h
  degradation of transiently expressed PALB2-IKZF3d fusion: occurred only with the C-terminal fusion; also recorded: shows degradation
PALB2-IKZF3d
  degradation of PALB2 in IKZF3d knock-in cells: significant degradation of PALB2
PALB2-IKZF3d; listed as pomalidomide
  degradation of PALB2 in IKZF3d knock-in cells: degrade most of the endogenous PA LB2
[2]; HEK293 wild-type cells, Pom vs DMSO control
  GFP-positive cells (DR-GFP): remained largely unchanged
[2]; PALB2 IKZF3d/IKZF3d cells, 10 μM Pom 24 h before I-SceI transfection, flow cytometry after 4 days
  GFP-positive cells (DR-GFP): notable decrease in GFP-positive cells
Rad51 foci; PALB2 IKZF3d/IKZF3d cells
  number of Rad51 foci formed in response to DSBs by camptothecin: significantly decrease
Rad51 foci; PALB2 wild-type cells
  compromised Rad51 foci formation: not observed
[3]
  viability of WT and KI cell lines with Pom alone: did not show strong differences

## PALB2 WD40 (from UniProt Q86YC2)
[4]
  Kd: 600 nM

B1: BRCA(23–33) (peptide, UniProt P51587 23-33, looked up)
peptide: DLGPISLNWFE
notes: BRCA2 residues 23-33; Rink amide beads: probably a C-terminal amide (my surmise); also called absolute minimal peptide; source: synthetic peptide (SPPS, preparative HPLC)
[5]
  Kd: 8000 nM
